Source: ChEMBL document CHEMBL1641605, “Diphenylpropynone derivatives as probes for imaging β-amyloid plaques in Alzheimer's brains” (Bioorg Med Chem Lett, 2011)
Values belong to the compound of their own block, whether it stands above or below them. Calls of active or inactive are those of the source. The calls are words filed in the database; no cut-off is given here.

Key:
[1] = biological target: Amyloid-beta precursor protein (Homo sapiens, UniProt P05067); assay: Displacement of [125I]DMIC from Amyloid beta (1 to 42) after 3 hrs by gamma counting
Amyloid-beta precursor protein, sequence (P05067 whole entry): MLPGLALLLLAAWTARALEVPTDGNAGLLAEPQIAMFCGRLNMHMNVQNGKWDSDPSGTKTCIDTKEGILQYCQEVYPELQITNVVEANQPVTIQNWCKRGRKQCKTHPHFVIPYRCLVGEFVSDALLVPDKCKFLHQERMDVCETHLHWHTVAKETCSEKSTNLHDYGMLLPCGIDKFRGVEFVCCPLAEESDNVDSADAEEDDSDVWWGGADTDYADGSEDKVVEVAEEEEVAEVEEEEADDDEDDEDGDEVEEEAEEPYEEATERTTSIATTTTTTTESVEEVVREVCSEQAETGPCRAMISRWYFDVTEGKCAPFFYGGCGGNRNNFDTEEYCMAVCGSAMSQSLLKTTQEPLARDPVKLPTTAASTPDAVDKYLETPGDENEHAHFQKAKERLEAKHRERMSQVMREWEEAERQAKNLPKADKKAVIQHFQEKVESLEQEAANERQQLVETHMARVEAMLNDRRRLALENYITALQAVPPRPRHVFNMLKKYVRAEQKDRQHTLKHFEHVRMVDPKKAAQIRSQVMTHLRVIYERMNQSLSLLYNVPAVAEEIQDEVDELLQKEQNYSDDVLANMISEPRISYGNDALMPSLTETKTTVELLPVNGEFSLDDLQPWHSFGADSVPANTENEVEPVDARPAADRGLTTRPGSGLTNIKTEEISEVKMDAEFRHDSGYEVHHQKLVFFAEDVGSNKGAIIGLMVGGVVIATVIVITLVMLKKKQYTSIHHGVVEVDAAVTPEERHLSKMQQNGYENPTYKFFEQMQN

Mus musculus [2] = organism: Mus musculus; assay: Binding affinity to beta-amyloid in Tg2576 transgenic mouse brain after 3 mins by microscopic analysis; type: tissue-based
Mus musculus [3] = organism: Mus musculus; assay: Binding affinity to beta-amyloid in wild type mouse brain after 3 mins by microscopic analysis; type: tissue-based
Spleen [4] = assay: Biodistribution in ddY mouse spleen assessed as per gram of tissue at 0.3 to 0.5 uCi, iv after 2 mins by gamma counting; type: ADME, organism-based; details: in vivo
Brain [5] = assay: Biodistribution in ddY mouse brain assessed as per gram of tissue at 0.3 to 0.5 uCi, iv after 30 mins by gamma counting; type: ADME, organism-based; details: in vivo, 0.5 h
Pancreas [6] = assay: Biodistribution in ddY mouse pancreas assessed as per gram of tissue at 0.3 to 0.5 uCi, iv after 10 mins by gamma counting; type: ADME, organism-based; details: in vivo
Spleen [7] = assay: Biodistribution in ddY mouse spleen assessed as per gram of tissue at 0.3 to 0.5 uCi, iv after 30 mins by gamma counting; type: ADME, organism-based; details: in vivo, 0.5 h
Liver [8] = assay: Biodistribution in ddY mouse liver assessed as per gram of tissue at 0.3 to 0.5 uCi, iv after 10 mins by gamma counting; type: ADME, organism-based; details: in vivo
Kidney [9] = assay: Biodistribution in ddY mouse kidney assessed as per gram of tissue at 0.3 to 0.5 uCi, iv after 10 mins by gamma counting; type: ADME, organism-based; details: in vivo
Brain [10] = assay: Biodistribution in ddY mouse brain assessed as per gram of tissue at 0.3 to 0.5 uCi, iv after 10 mins by gamma counting; type: ADME, organism-based; details: in vivo
Heart [11] = assay: Biodistribution in ddY mouse heart assessed as per gram of tissue at 0.3 to 0.5 uCi, iv after 60 mins by gamma counting; type: ADME, organism-based; details: in vivo, 1 h
Liver [12] = assay: Biodistribution in ddY mouse liver assessed as per gram of tissue at 0.3 to 0.5 uCi, iv after 60 mins by gamma counting; type: ADME, organism-based; details: in vivo, 1 h
Blood [13] = assay: Biodistribution in ddY mouse blood assessed as per gram of tissue at 0.3 to 0.5 uCi, iv after 60 mins by gamma counting; type: ADME, organism-based; details: in vivo, 1 h
Stomach [14] = assay: Biodistribution in ddY mouse stomach assessed as per gram of tissue at 0.3 to 0.5 uCi, iv after 10 mins by gamma counting; type: ADME, organism-based; details: in vivo
Kidney [15] = assay: Biodistribution in ddY mouse kidney assessed as per gram of tissue at 0.3 to 0.5 uCi, iv after 60 mins by gamma counting; type: ADME, organism-based; details: in vivo, 1 h
Intestine [16] = assay: Biodistribution in ddY mouse intestine assessed as per organ at 0.3 to 0.5 uCi, iv after 30 mins by gamma counting; type: ADME, organism-based; details: in vivo, 0.5 h
Heart [17] = assay: Biodistribution in ddY mouse heart assessed as per gram of tissue at 0.3 to 0.5 uCi, iv after 2 mins by gamma counting; type: ADME, organism-based; details: in vivo
Stomach [18] = assay: Biodistribution in ddY mouse stomach assessed as per gram of tissue at 0.3 to 0.5 uCi, iv after 30 mins by gamma counting; type: ADME, organism-based; details: in vivo, 0.5 h
Blood [19] = assay: Biodistribution in ddY mouse blood assessed as per gram of tissue at 0.3 to 0.5 uCi, iv after 10 mins by gamma counting; type: ADME, organism-based; details: in vivo
Stomach [20] = assay: Biodistribution in ddY mouse stomach assessed as per gram of tissue at 0.3 to 0.5 uCi, iv after 2 mins by gamma counting; type: ADME, organism-based; details: in vivo
Kidney [21] = assay: Biodistribution in ddY mouse kidney assessed as per gram of tissue at 0.3 to 0.5 uCi, iv after 30 mins by gamma counting; type: ADME, organism-based; details: in vivo, 0.5 h
Intestine [22] = assay: Biodistribution in ddY mouse intestine assessed as per organ at 0.3 to 0.5 uCi, iv after 2 mins by gamma counting; type: ADME, organism-based; details: in vivo
Heart [23] = assay: Biodistribution in ddY mouse heart assessed as per gram of tissue at 0.3 to 0.5 uCi, iv after 30 mins by gamma counting; type: ADME, organism-based; details: in vivo, 0.5 h
Kidney [24] = assay: Biodistribution in ddY mouse kidney assessed as per gram of tissue at 0.3 to 0.5 uCi, iv after 2 mins by gamma counting; type: ADME, organism-based; details: in vivo
Pancreas [25] = assay: Biodistribution in ddY mouse pancreas assessed as per gram of tissue at 0.3 to 0.5 uCi, iv after 60 mins by gamma counting; type: ADME, organism-based; details: in vivo, 1 h
Pancreas [26] = assay: Biodistribution in ddY mouse pancreas assessed as per gram of tissue at 0.3 to 0.5 uCi, iv after 2 mins by gamma counting; type: ADME, organism-based; details: in vivo
Intestine [27] = assay: Biodistribution in ddY mouse intestine assessed as per organ at 0.3 to 0.5 uCi, iv after 60 mins by gamma counting; type: ADME, organism-based; details: in vivo, 1 h
Liver [28] = assay: Biodistribution in ddY mouse liver assessed as per gram of tissue at 0.3 to 0.5 uCi, iv after 2 mins by gamma counting; type: ADME, organism-based; details: in vivo
Pancreas [29] = assay: Biodistribution in ddY mouse pancreas assessed as per gram of tissue at 0.3 to 0.5 uCi, iv after 30 mins by gamma counting; type: ADME, organism-based; details: in vivo, 0.5 h
Brain [30] = assay: Biodistribution in ddY mouse brain assessed as per gram of tissue at 0.3 to 0.5 uCi, iv after 60 mins by gamma counting; type: ADME, organism-based; details: in vivo, 1 h
Blood [31] = assay: Biodistribution in ddY mouse blood assessed as per gram of tissue at 0.3 to 0.5 uCi, iv after 30 mins by gamma counting; type: ADME, organism-based; details: in vivo, 0.5 h
Blood [32] = assay: Biodistribution in ddY mouse blood assessed as per gram of tissue at 0.3 to 0.5 uCi, iv after 2 mins by gamma counting; type: ADME, organism-based; details: in vivo
Spleen [33] = assay: Biodistribution in ddY mouse spleen assessed as per gram of tissue at 0.3 to 0.5 uCi, iv after 60 mins by gamma counting; type: ADME, organism-based; details: in vivo, 1 h
Stomach [34] = assay: Biodistribution in ddY mouse stomach assessed as per gram of tissue at 0.3 to 0.5 uCi, iv after 60 mins by gamma counting; type: ADME, organism-based; details: in vivo, 1 h
Intestine [35] = assay: Biodistribution in ddY mouse intestine assessed as per organ at 0.3 to 0.5 uCi, iv after 10 mins by gamma counting; type: ADME, organism-based; details: in vivo
Brain [36] = assay: Biodistribution in ddY mouse brain assessed as per gram of tissue at 0.3 to 0.5 uCi, iv after 2 mins by gamma counting; type: ADME, organism-based; details: in vivo
Liver [37] = assay: Biodistribution in ddY mouse liver assessed as per gram of tissue at 0.3 to 0.5 uCi, iv after 30 mins by gamma counting; type: ADME, organism-based; details: in vivo, 0.5 h
Heart [38] = assay: Biodistribution in ddY mouse heart assessed as per gram of tissue at 0.3 to 0.5 uCi, iv after 10 mins by gamma counting; type: ADME, organism-based; details: in vivo
Spleen [39] = assay: Biodistribution in ddY mouse spleen assessed as per gram of tissue at 0.3 to 0.5 uCi, iv after 10 mins by gamma counting; type: ADME, organism-based; details: in vivo

Structure (SMILES): CN(C)c1ccc(C#CC(=O)c2ccc(I)cc2)cc1
Activity (Mus musculus [2]): Active
Activity (Mus musculus [3]): inactive
Ki [1]: 6 nM

Structure (SMILES): O=C(C#Cc1ccc(O)cc1)c1ccc(I)cc1
Ki [1]: 326 nM

Structure (SMILES): COc1ccc(C#CC(=O)c2ccc(I)cc2)cc1
Ki [1]: 13.7 nM

The remaining lines, values ahead:

Ki [1]: 20.4 nM
Structure (SMILES): CN(C)c1ccc(C#CC(=O)c2ccc(F)cc2)cc1

Drug uptake (Spleen [4]): 4.41 %ID
Drug uptake (Brain [5]): 0.93 %ID
Drug uptake (Pancreas [6]): 3.39 %ID
Drug uptake (Spleen [7]): 5.47 %ID
Drug uptake (Liver [8]): 15.29 %ID
Drug uptake (Kidney [9]): 9.81 %ID
Drug uptake (Brain [10]): 1.23 %ID
Drug uptake (Heart [11]): 4.94 %ID
Drug uptake (Liver [12]): 10.06 %ID
Drug uptake (Blood [13]): 3.07 %ID
Drug uptake (Stomach [14]): 2.97 %ID
Drug uptake (Kidney [15]): 7.75 %ID
Drug uptake (Intestine [16]): 12.04 %ID
Drug uptake (Heart [17]): 10 %ID
Drug uptake (Stomach [18]): 2.35 %ID
Drug uptake (Blood [19]): 5.44 %ID
Drug uptake (Stomach [20]): 0.75 %ID
Drug uptake (Kidney [21]): 8.34 %ID
Drug uptake (Intestine [22]): 2.73 %ID
Drug uptake (Heart [23]): 6.03 %ID
Drug uptake (Kidney [24]): 10.45 %ID
Drug uptake (Pancreas [25]): 2.09 %ID
Drug uptake (Pancreas [26]): 3.9 %ID
Drug uptake (Intestine [27]): 14.02 %ID
Drug uptake (Liver [28]): 19.96 %ID
Drug uptake (Pancreas [29]): 2.57 %ID
Drug uptake (Brain [30]): 0.76 %ID
Drug uptake (Blood [31]): 3.94 %ID
Drug uptake (Blood [32]): 6.19 %ID
Drug uptake (Spleen [33]): 4.43 %ID
Drug uptake (Stomach [34]): 1.46 %ID
Drug uptake (Intestine [35]): 8.44 %ID
Drug uptake (Brain [36]): 1.55 %ID
Drug uptake (Liver [37]): 12.02 %ID
Drug uptake (Heart [38]): 7.53 %ID
Drug uptake (Spleen [39]): 5.19 %ID
Structure (SMILES): CN(C)c1ccc(C#CC(=O)c2ccc([125I])cc2)cc1
